Experimental data: patent US20260027116A1, “Methods of Treating Chronic Graft-Versus-Host Disease Following Allogeneic Hematopoietic Stem Cell Transplantation” (Kadmon Corporation, LLC, priority 2022, published 2026)

What was measured:
[1] = biological target: T1, CYP2D6 (Homo sapiens, UniProt P10635); test: metabolism in vitro; format: in vitro ADME
[2] = biological target: T1, CYP2D6; test: enzyme inhibition in vitro; format: in vitro ADME
[3] = biological target: P-gp (Homo sapiens, UniProt P08183); test: transporter inhibition in vitro; format: in vitro ADME; conditions: at clinically relevant concentrations
Sequence of P-gp (P08183 whole entry): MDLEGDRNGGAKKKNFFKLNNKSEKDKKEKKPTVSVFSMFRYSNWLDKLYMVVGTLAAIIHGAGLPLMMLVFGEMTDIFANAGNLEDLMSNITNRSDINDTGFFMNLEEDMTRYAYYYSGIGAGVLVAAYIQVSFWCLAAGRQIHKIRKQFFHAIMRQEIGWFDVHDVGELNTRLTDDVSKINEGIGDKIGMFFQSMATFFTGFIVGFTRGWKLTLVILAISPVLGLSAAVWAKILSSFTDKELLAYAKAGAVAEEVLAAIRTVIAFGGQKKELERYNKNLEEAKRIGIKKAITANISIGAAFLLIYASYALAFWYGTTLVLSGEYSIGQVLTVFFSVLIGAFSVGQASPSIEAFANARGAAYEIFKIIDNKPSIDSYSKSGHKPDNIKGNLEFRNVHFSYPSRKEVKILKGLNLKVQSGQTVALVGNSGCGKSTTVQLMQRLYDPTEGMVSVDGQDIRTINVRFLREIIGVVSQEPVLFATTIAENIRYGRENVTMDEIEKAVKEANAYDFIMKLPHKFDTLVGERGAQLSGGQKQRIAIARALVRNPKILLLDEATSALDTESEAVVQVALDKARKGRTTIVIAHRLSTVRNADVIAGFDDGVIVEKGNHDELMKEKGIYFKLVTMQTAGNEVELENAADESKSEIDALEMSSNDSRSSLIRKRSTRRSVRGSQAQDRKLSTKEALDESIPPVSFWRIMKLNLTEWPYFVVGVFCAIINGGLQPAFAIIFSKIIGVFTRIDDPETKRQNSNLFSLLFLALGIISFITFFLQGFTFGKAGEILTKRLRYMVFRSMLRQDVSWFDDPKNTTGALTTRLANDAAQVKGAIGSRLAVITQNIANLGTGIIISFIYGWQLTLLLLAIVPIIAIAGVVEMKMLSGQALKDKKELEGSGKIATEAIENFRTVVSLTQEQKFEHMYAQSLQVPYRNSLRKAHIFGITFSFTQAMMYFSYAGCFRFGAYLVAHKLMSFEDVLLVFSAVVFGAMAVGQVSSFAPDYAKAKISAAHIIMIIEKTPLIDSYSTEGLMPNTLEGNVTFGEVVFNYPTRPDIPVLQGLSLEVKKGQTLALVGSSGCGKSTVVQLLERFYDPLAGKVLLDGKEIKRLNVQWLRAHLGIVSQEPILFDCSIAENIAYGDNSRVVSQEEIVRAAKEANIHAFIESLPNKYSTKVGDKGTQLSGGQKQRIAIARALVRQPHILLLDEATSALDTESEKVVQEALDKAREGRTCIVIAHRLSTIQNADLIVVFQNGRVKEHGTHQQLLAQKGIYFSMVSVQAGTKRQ

[4] = biological target: T2, UGT1A9 (Homo sapiens, UniProt O60656); test: enzyme inhibition in vitro; format: in vitro ADME
T2 sequence (O60656 26-530): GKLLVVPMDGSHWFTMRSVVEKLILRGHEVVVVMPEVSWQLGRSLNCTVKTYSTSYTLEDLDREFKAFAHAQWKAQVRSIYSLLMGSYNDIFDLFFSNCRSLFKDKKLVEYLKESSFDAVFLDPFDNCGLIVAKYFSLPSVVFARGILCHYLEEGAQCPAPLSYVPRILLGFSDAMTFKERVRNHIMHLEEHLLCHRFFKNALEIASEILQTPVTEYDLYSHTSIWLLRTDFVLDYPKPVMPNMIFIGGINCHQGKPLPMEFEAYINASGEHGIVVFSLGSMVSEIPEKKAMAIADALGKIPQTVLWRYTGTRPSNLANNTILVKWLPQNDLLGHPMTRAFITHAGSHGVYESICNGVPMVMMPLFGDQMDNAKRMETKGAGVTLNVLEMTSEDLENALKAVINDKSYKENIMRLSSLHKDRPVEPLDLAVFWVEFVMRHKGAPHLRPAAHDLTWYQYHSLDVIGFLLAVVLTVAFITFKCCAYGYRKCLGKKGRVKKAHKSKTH

[5] = test system: cGVHD symptom burden; test: Example 2: 7-day LSS summary score; format: in vivo, human; conditions: for Clinically significant improvement from baseline (LSS), Overall: decrease ≥ 7 points in LSS score
Method: All responses were assessed by the study site investigators.

[6] = test system: lung function; test: Example 1: percent predicted FEV1 change from baseline; format: in vivo, human; conditions: Cohort 1: 200 mg QD
Method: Change From Baseline in Percent Predicted Forced Expiratory Volume in 1 Second (FEV1) at Each Specified Time Points. FEV1 was the volume of air exhaled from the lungs in the first second of a forced expiration as measured by spirometer. Baseline value was defined as valid and last non-missing value obtained within 28 days prior to participant receiving first study medication. EOT visit was performed within 3 days after the participant's last dose of study drug. […] Analysis was performed on mITT population. Here, ‘number analyzed’=participants with available data for each specified category. Here, ‘O’ in the number analyzed field signifies that none of the participants were available for the analysis at the specified time points.

T1 sequence (P10635 whole entry): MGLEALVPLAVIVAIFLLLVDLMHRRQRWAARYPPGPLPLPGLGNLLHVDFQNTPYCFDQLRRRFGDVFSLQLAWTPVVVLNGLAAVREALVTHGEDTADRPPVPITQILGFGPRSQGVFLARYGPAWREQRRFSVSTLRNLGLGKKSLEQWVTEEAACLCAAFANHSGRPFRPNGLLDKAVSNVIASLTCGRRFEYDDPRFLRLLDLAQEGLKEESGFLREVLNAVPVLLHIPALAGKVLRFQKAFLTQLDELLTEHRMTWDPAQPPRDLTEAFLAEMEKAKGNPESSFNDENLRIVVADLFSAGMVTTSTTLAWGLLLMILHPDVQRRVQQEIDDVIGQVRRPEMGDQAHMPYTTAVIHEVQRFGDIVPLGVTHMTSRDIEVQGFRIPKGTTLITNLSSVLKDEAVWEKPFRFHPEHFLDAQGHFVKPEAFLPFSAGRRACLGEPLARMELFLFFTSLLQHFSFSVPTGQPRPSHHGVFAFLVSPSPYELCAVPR

Which results are given for `CC(C)NC(=O)COc1cccc(-c2nc(Nc3ccc4[nH]ncc4c3)c3ccccc3n2)c1` [Belumosudil, 2-{3-[4-(1H-indazol-5-ylamino)-2-quinazolinyl]phenoxy}-N-(propan-2-yl) acetamide]?
metabolism by CYP2D6 [1]: to a lesser extent; inhibition of CYP2D6 [2]: inhibitor; inhibition of P-gp [3]: inhibits; inhibition of UGT1A9 [4]: inhibitor; clinically meaningful LSS improvement, nonresponders ([5]; 200 mg daily): 29%; clinically meaningful LSS improvement, responders ([5]; 200 mg daily): 69%; clinically meaningful improvement (≥7-point) in 7-day LSS summary score, mITT ([5]; 200 mg daily): 59%; clinically meaningful LSS improvement, nonresponders ([5]; 200 mg twice daily): 33%; clinically meaningful LSS improvement, responders ([5]; 200 mg twice daily): 71%; clinically meaningful improvement (≥7-point) in 7-day LSS summary score, mITT ([5]; 200 mg twice daily): 62%; Clinically significant improvement from baseline (LSS), Overall ([5]; 200 mg daily (n = 66)): 39 (59) n (%); Clinically significant improvement from baseline (LSS), Overall ([5]; 200 mg twice daily (n = 66)): 41 (62) n (%); Clinically significant improvement from baseline (LSS), Overall ([5]; Total (N = 132)): 80 (61) n (%); Change From Baseline in Percent Predicted Forced Expiratory Volume in 1 Second (FEV1), Mean (Standard Deviation) ([6]; Cycle 3, Day 1): 1.1 (4.8) percent predicted FEV1; Change From Baseline in Percent Predicted Forced Expiratory Volume in 1 Second (FEV1), Mean (Standard Deviation) ([6]; Cycle 5, Day 1): −3.3 (8.0) percent predicted FEV1; Change From Baseline in Percent Predicted Forced Expiratory Volume in 1 Second (FEV1), Mean (Standard Deviation) ([6]; Cycle 7, Day 1): −3.5 (4.6) percent predicted FEV1; Change From Baseline in Percent Predicted Forced Expiratory Volume in 1 Second (FEV1), Mean (Standard Deviation) ([6]; Cycle 9, Day 1): −1.7 (6.8) percent predicted FEV1; Change From Baseline in Percent Predicted Forced Expiratory Volume in 1 Second (FEV1), Mean (Standard Deviation) ([6]; Cycle 11, Day 1): −4.3 (5.2) percent predicted FEV1; Change From Baseline in Percent Predicted Forced Expiratory Volume in 1 Second (FEV1), Mean (Standard Deviation) ([6]; Cycle 12, Day 1): −2.0 (—) percent predicted FEV1; Change From Baseline in Percent Predicted Forced Expiratory Volume in 1 Second (FEV1), Mean (Standard Deviation) ([6]; Cycle 13, Day 1): −5.9 (9.3) percent predicted FEV1; Change From Baseline in Percent Predicted Forced Expiratory Volume in 1 Second (FEV1), Mean (Standard Deviation) ([6]; Cycle 14, Day 1): 2.0 (—) percent predicted FEV1; Change From Baseline in Percent Predicted Forced Expiratory Volume in 1 Second (FEV1), Mean (Standard Deviation) ([6]; Cycle 15, Day 1): −6.7 (11.7) percent predicted FEV1; Change From Baseline in Percent Predicted Forced Expiratory Volume in 1 Second (FEV1), Mean (Standard Deviation) ([6]; Cycle 16, Day 1): 2.0 (—) percent predicted FEV1; Change From Baseline in Percent Predicted Forced Expiratory Volume in 1 Second (FEV1), Mean (Standard Deviation) ([6]; Cycle 17, Day 1): −5.3 (9.1) percent predicted FEV1; Change From Baseline in Percent Predicted Forced Expiratory Volume in 1 Second (FEV1), Mean (Standard Deviation) ([6]; Cycle 19, Day 1): −5.2 (9.9) percent predicted FEV1; Change From Baseline in Percent Predicted Forced Expiratory Volume in 1 Second (FEV1), Mean (Standard Deviation) ([6]; Cycle 25, Day 1): −11.0 (15.6) percent predicted FEV1; Change From Baseline in Percent Predicted Forced Expiratory Volume in 1 Second (FEV1), Mean (Standard Deviation) ([6]; Cycle 26, Day 1): 0.0 (—) percent predicted FEV1; Change From Baseline in Percent Predicted Forced Expiratory Volume in 1 Second (FEV1), Mean (Standard Deviation) ([6]; Cycle 27, Day 1): −6.5 (13.4) percent predicted FEV1; Change From Baseline in Percent Predicted Forced Expiratory Volume in 1 Second (FEV1), Mean (Standard Deviation) ([6]; Cycle 29, Day 1): −0.5 (9.2) percent predicted FEV1; Change From Baseline in Percent Predicted Forced Expiratory Volume in 1 Second (FEV1), Mean (Standard Deviation) ([6]; Cycle 30, Day 1): 3.0 (—) percent predicted FEV1; Change From Baseline in Percent Predicted Forced Expiratory Volume in 1 Second (FEV1), Mean (Standard Deviation) ([6]; Cycle 31, Day 1): −3.5 (12.0) percent predicted FEV1; Change From Baseline in Percent Predicted Forced Expiratory Volume in 1 Second (FEV1), Mean (Standard Deviation) ([6]; Cycle 32, Day 1): 1.0 (—) percent predicted FEV1; Change From Baseline in Percent Predicted Forced Expiratory Volume in 1 Second (FEV1), Mean (Standard Deviation) ([6]; Cycle 33, Day 1): 5.0 (5.7) percent predicted FEV1; Change From Baseline in Percent Predicted Forced Expiratory Volume in 1 Second (FEV1), Mean (Standard Deviation) ([6]; Cycle 34, Day 1): 2.0 (—) percent predicted FEV1; Change From Baseline in Percent Predicted Forced Expiratory Volume in 1 Second (FEV1), Mean (Standard Deviation) ([6]; Cycle 35, Day 1): 5.0 (0.0) percent predicted FEV1; Change From Baseline in Percent Predicted Forced Expiratory Volume in 1 Second (FEV1), Mean (Standard Deviation) ([6]; Cycle 36, Day 1): 3.0 (—) percent predicted FEV1; Change From Baseline in Percent Predicted Forced Expiratory Volume in 1 Second (FEV1), Mean (Standard Deviation) ([6]; Cycle 37, Day 1): −1.0 (—) percent predicted FEV1; Change From Baseline in Percent Predicted Forced Expiratory Volume in 1 Second (FEV1), Mean (Standard Deviation) ([6]; Cycle 38, Day 1): 1.0 (—) percent predicted FEV1; Change From Baseline in Percent Predicted Forced Expiratory Volume in 1 Second (FEV1), Mean (Standard Deviation) ([6]; Cycle 39, Day 1): 10.0 (2.8) percent predicted FEV1; Change From Baseline in Percent Predicted Forced Expiratory Volume in 1 Second (FEV1), Mean (Standard Deviation) ([6]; Cycle 40, Day 1): −1.0 (—) percent predicted FEV1; Change From Baseline in Percent Predicted Forced Expiratory Volume in 1 Second (FEV1), Mean (Standard Deviation) ([6]; Cycle 41, Day 1): 15.0 (—) percent predicted FEV1; Change From Baseline in Percent Predicted Forced Expiratory Volume in 1 Second (FEV1), Mean (Standard Deviation) ([6]; Cycle 43, Day 1): 16.0 (—) percent predicted FEV1; Change From Baseline in Percent Predicted Forced Expiratory Volume in 1 Second (FEV1), Mean (Standard Deviation) ([6]; Cycle 47, Day 1): 5.0 (—) percent predicted FEV1; Change From Baseline in Percent Predicted Forced Expiratory Volume in 1 Second (FEV1), Mean (Standard Deviation) ([6]; Cycle 48, Day 1): 3.0 (—) percent predicted FEV1; Change From Baseline in Percent Predicted Forced Expiratory Volume in 1 Second (FEV1), Mean (Standard Deviation) ([6]; Cycle 49, Day 1): 8.0 (—) percent predicted FEV1; Change From Baseline in Percent Predicted Forced Expiratory Volume in 1 Second (FEV1), Mean (Standard Deviation) ([6]; Cycle 51, Day 1): 8.0 (—) percent predicted FEV1; Change From Baseline in Percent Predicted Forced Expiratory Volume in 1 Second (FEV1), Mean (Standard Deviation) ([6]; Cycle 52, Day 1): 0.0 (—) percent predicted FEV1; Change From Baseline in Percent Predicted Forced Expiratory Volume in 1 Second (FEV1), Mean (Standard Deviation) ([6]; Cycle 53, Day 1): 9.0 (—) percent predicted FEV1; Change From Baseline in Percent Predicted Forced Expiratory Volume in 1 Second (FEV1), Mean (Standard Deviation) ([6]; Cycle 54, Day 1): 4.0 (—) percent predicted FEV1; Change From Baseline in Percent Predicted Forced Expiratory Volume in 1 Second (FEV1), Mean (Standard Deviation) ([6]; Cycle 55, Day 1): 13.0 (—) percent predicted FEV1; Change From Baseline in Percent Predicted Forced Expiratory Volume in 1 Second (FEV1), Mean (Standard Deviation) ([6]; Cycle 56, Day 1): 4.0 (—) percent predicted FEV1; Change From Baseline in Percent Predicted Forced Expiratory Volume in 1 Second (FEV1), Mean (Standard Deviation) ([6]; Cycle 57, Day 1): 13.0 (—) percent predicted FEV1; Change From Baseline in Percent Predicted Forced Expiratory Volume in 1 Second (FEV1), Mean (Standard Deviation) ([6]; Cycle 58, Day 1): 5.0 (—) percent predicted FEV1; Change From Baseline in Percent Predicted Forced Expiratory Volume in 1 Second (FEV1), Mean (Standard Deviation) ([6]; Cycle 60, Day 1): 4.0 (—) percent predicted FEV1; Change From Baseline in Percent Predicted Forced Expiratory Volume in 1 Second (FEV1), Mean (Standard Deviation) ([6]; Cycle 61, Day 1): 10.0 (—) percent predicted FEV1; Change From Baseline in Percent Predicted Forced Expiratory Volume in 1 Second (FEV1), Mean (Standard Deviation) ([6]; Cycle 62, Day 1): 2.0 (—) percent predicted FEV1
